Source: patent US20230218761A1, “METHOD FOR DECOMPOSING COMPOUND AND COMPOUND” (NATIONAL UNIVERSITY CORPORATION HOKKAIDO UNIVERSITY, priority 2020, published 2023)
Values belong to the substance of their own block, whether it stands above or below them.

Tests used:
Format in all cases: physicochemical
[1] = Decomposition of compound by X-ray irradiation, residual ratio by HPLC (Examples 5 to 8); settings: 0.5 μM compound in 0.1-M phosphoric acid buffer pH 7.0, bubbled with Ar, X-rays 6 MeV, 20 Gy, 4.4 Gy/min
Method: HPLC System: HPLC system (produced by Shimadzu Corporation) equipped with a reverse-phase column Inertsil ODS-3 (10 mm×250 mm) (produced by GL Sciences).
Eluent A: 0.1-M triethylamine acetic acid buffer solution
This buffer solution was used as an X-ray irradiation solution for the compound.
The X-ray irradiation solution for the compound was bubbled with Ar and then irradiated with X-rays at 6 MeV (20 Gy, 4.4 Gy/min) using LINAC (linear accelerator).
The peak area ratio was calculated on the basis of the areas of absorption peaks of the compound and methylene blue. The ratio between the concentrations of methylene blue and the compound was determined using the calibration curve. The concentration of the compound was calculated using the known concentration of the methylene blue. Thus, the residual ratio (Post/Pre (%)) of the compound was determined.
Note that, the smaller the residual ratio (Post/Pre (%)), the higher the degree of progress of the decomposition (selectively decomposition of chemical bonds; dissociation of axial ligands) by X-rays.

[2] = Impact of pH on decomposition of the compound by X-ray irradiation (residual ratio by HPLC); settings: X-rays 6 MeV, 20 Gy absorbed, average of three
Method: In a phosphoric acid buffer solution having a pH of 6 or 7, 5 μM of the compound 2 was dissolved. While degassing was performed using Ar, the resulting mixture was irradiated with X-rays (6 MeV) using LINAC such that the amount of X-rays absorbed was 20 Gy. The sample irradiated with X-rays was analyzed using HPLC as in Example 5 to calculate the residual ratios of the compound 2 at the above pH values. The above calculation was conducted three times for each case, and the average was considered as the residual ratio (Post/Pre (%)) of the compound 2.
In Reference Example 2 where the compound 2 was dissolved in a phosphoric acid buffer solution having a pH of 7, the residual ratio (Post/Pre (%)) at which the compound 2 remained after the X-ray irradiation was 50.0%.
This confirms that, the lower the pH, the higher the likelihood of dissociation of the axial ligands.

[3] = Impact of radical species on decomposition of the compound by X-ray irradiation (residual ratio by HPLC); settings: 6 MeV
Method: Sodium formate was added to a 5-μM aqueous solution of the compound 2 as a radical scavenger. While degassing was performed using Ar, the resulting mixture was irradiated with X-rays (6 MeV) using LINAC such that the amount of X-rays absorbed was 2, 3, 4, or 5 Gy. Immediately after the irradiation, the degassing was stopped and the sample irradiated with X-rays was analyzed using HPLC as in Example 5 to calculate the residual ratios of the compound 2 under the above irradiation conditions. Note that, when the amount of X-rays emitted was 5 Gy, the amount of e^−aq (hydrated electrons) produced was 1.6 μM and the amount of CO2^−·(carbon dioxide anion radicals) produced was 1.6 μM. The irradiation and calculation of the residual ratio were conducted three times for each case, and the average was considered as the residual ratio (Post/Pre (%)) of the compound 2.
The residual ratio (Post/Pre (%)) of the compound 2 was calculated as in Reference Example 3, except that the degassing was stopped after the Ar degassing had been maintained 30 minutes subsequent to the X-ray irradiation.
The residual ratio (Post/Pre (%)) of the compound 2 was calculated as in Reference Example 3, except that, instead of sodium formate, sodium formate and nitrous oxide were used as a radical scavenger. Note that, when the amount of X-rays emitted was 5 Gy, the amount of e^−aq (hydrated electrons) produced was 0 μM and the amount of CO2^−·(carbon dioxide anion radicals) produced was 3.1 μM.
The residual ratio (Post/Pre (%)) of the compound 2 was calculated as in Reference Example 5, except that the degassing was stopped after the Ar degassing had been maintained 30 minutes subsequent to the X-ray irradiation.
The residual ratio (Post/Pre (%)) of the compound 2 was calculated as in Reference Example 3, except that the radical scavenger was not used.
The results obtained in Reference Example 3 to 6 confirm that, even in the case where the amount of X-ray (6 MeV) emitted is 10 Gy or less, that is, for example, 2 to 5 Gy, the selective decomposition of the chemical bonds of the compound 2 (dissociation of axial ligands) occurs due to the action of e^−aq (hydrated electrons) and/or CO2^−·(carbon dioxide anion radicals). It was also confirmed that continuing the Ar degassing subsequent to the irradiation enables the selective decomposition of the chemical bonds of the compound 2 to occur.
On the basis of the results obtained in Reference Examples 3 to 6, it is also considered that e^−aq (hydrated electrons) and/or CO2^−·(carbon dioxide anion radicals) contribute to the dissociation of the axial ligands of the compound 2. Since the residual ratio of the compound 2 decreased in the cases where the degassing was maintained, it is also considered that maintaining the degassing causes a radical chain reaction responsible for the dissociation of the axial ligands.

Substance: Bis({6-[Tris(3-Sulfopropyl)]Ammoniohexanoyl} Oxide) Silicon Phthalocyanine [Compound 3]
Post/pre (%) residual ratio of the compound after X-ray irradiation [1]: 62.1%

Post/pre (%) residual ratio of the compound after X-ray irradiation [1]: 52.5%
Substance: Bis{3-[Tris(3-Sulfopropyl)]Ammoniopropyldimethylsilyl Oxide} Silicon Phthalocyanine [Compound 1]

Post/pre (%) residual ratio of the compound after X-ray irradiation [1]: 46.8%
residual ratio (Post/Pre (%)) after X-ray irradiation ([2]; 5 μM in phosphoric acid buffer pH 6, Ar degassing): 18.6%
residual ratio (Post/Pre (%)) after X-ray irradiation ([2]; 5 μM in phosphoric acid buffer pH 7, Ar degassing): 50.0%
residual ratio (Post/Pre (%)) ([3]; Reference example 3: 5 μM aqueous, sodium formate, Ar degassing stopped immediately after irradiation, 2 Gy absorbed): 98.4%
residual ratio (Post/Pre (%)) ([3]; Reference example 3: 5 μM aqueous, sodium formate, Ar degassing stopped immediately after irradiation, 3 Gy absorbed): 93.3%
residual ratio (Post/Pre (%)) ([3]; Reference example 3: 5 μM aqueous, sodium formate, Ar degassing stopped immediately after irradiation, 4 Gy absorbed): 89.5%
residual ratio (Post/Pre (%)) ([3]; Reference example 3: 5 μM aqueous, sodium formate, Ar degassing stopped immediately after irradiation, 5 Gy absorbed): 8.8%
residual ratio (Post/Pre (%)) ([3]; Reference example 4: sodium formate, Ar degassing maintained 30 minutes after irradiation, 2 Gy absorbed): 100%
residual ratio (Post/Pre (%)) ([3]; Reference example 4: sodium formate, Ar degassing maintained 30 minutes after irradiation, 3 Gy absorbed): 49.9%
residual ratio (Post/Pre (%)) ([3]; Reference example 4: sodium formate, Ar degassing maintained 30 minutes after irradiation, 4 Gy absorbed): 0.3%
residual ratio (Post/Pre (%)) ([3]; Reference example 4: sodium formate, Ar degassing maintained 30 minutes after irradiation, 5 Gy absorbed): 0%
residual ratio (Post/Pre (%)) ([3]; Reference example 5: sodium formate and nitrous oxide, degassing stopped immediately after irradiation, 2 Gy absorbed): 96.0%
residual ratio (Post/Pre (%)) ([3]; Reference example 5: sodium formate and nitrous oxide, degassing stopped immediately after irradiation, 3 Gy absorbed): 90.4%
residual ratio (Post/Pre (%)) ([3]; Reference example 5: sodium formate and nitrous oxide, degassing stopped immediately after irradiation, 4 Gy absorbed): 86.2%
residual ratio (Post/Pre (%)) ([3]; Reference example 5: sodium formate and nitrous oxide, degassing stopped immediately after irradiation, 5 Gy absorbed): 8.3%
residual ratio (Post/Pre (%)) ([3]; Reference example 6: sodium formate and nitrous oxide, Ar degassing maintained 30 minutes after irradiation, 2 Gy absorbed): 93.1%
residual ratio (Post/Pre (%)) ([3]; Reference example 6: sodium formate and nitrous oxide, Ar degassing maintained 30 minutes after irradiation, 3 Gy absorbed): 85.4%
residual ratio (Post/Pre (%)) ([3]; Reference example 6: sodium formate and nitrous oxide, Ar degassing maintained 30 minutes after irradiation, 4 Gy absorbed): 36.1%
residual ratio (Post/Pre (%)) ([3]; Reference example 6: sodium formate and nitrous oxide, Ar degassing maintained 30 minutes after irradiation, 5 Gy absorbed): 4.8%
residual ratio (Post/Pre (%)) ([3]; Reference example 7: no radical scavenger, Ar degassing, 2 Gy absorbed): 100%
residual ratio (Post/Pre (%)) ([3]; Reference example 7: no radical scavenger, Ar degassing, 3 Gy absorbed): 99.4%
residual ratio (Post/Pre (%)) ([3]; Reference example 7: no radical scavenger, Ar degassing, 4 Gy absorbed): 99.4%
residual ratio (Post/Pre (%)) ([3]; Reference example 7: no radical scavenger, Ar degassing, 5 Gy absorbed): 100%
Substance: Bis{4-[Tris(3-Sulfopropyl)]Ammoniobutyloxide} Silicon Phthalocyanine [Compound 2]

Post/pre (%) residual ratio of the compound after X-ray irradiation [1]: 74.8%
Substance: Bis{4-[Tris(3-Sulfopropyl)]Ammoniomethylphenoxide} Silicon Phthalocyanine [Compound 4]
